Molecules are shown by their SMILES. pIC50: −log10 of the molar value.

In general, pIC50 refers to the IC50 on a negative log10 scale, so that one unit is a factor of ten.

The target of the experiment is recombinant human HPK1 (Homo sapiens (Human), UniProt Q92918). Put plainly: HPK1 kinase assay (ADP-Glo). The experiment is classed as biochemical. The settings on record: 25 μM ATP, MBP substrate. As to the method: HPK1 kinase activity was measured by Promega's ADP-Glo™ kinase assay. In this assay, 5 ng of recombinant human HPK1 (signalchem) is incubated with 5 μL of compounds (0.5% DMSO), 5 μL of MBP (0.5 μg/μl) and 5 μL of ATP (25 μM) in buffer (40 mM Tris, 7.5; 20 mM MgCl2; 0.1 mg/ml BSA; 5 μM DTT). The assay was started by incubating the reaction mixture in a 96-well plate at 30′ C for 40 minutes. After the incubation, 25 uL ADP-Glo reagent was added and the reaction was incubated at room temperature for 40-min to stop the reaction and degrade residual ATP. The ADP product was then converted to ATP by adding 50 uL per well of detection reagent. Luminescence was detected after 30-min room temperature incubation with the Molecular device I3X plate reader. The IC50 values were calculated from a series of percent inhibition values determined at a range of inhibitor concentration using software routines as implemented in the GraphPad Prism 7 software and SigmaPlot13.0.
For orientation: ADP-Glo turns the ADP formed in a reaction into a luminescent signal.

Chain of recombinant human HPK1 (Q92918 whole entry): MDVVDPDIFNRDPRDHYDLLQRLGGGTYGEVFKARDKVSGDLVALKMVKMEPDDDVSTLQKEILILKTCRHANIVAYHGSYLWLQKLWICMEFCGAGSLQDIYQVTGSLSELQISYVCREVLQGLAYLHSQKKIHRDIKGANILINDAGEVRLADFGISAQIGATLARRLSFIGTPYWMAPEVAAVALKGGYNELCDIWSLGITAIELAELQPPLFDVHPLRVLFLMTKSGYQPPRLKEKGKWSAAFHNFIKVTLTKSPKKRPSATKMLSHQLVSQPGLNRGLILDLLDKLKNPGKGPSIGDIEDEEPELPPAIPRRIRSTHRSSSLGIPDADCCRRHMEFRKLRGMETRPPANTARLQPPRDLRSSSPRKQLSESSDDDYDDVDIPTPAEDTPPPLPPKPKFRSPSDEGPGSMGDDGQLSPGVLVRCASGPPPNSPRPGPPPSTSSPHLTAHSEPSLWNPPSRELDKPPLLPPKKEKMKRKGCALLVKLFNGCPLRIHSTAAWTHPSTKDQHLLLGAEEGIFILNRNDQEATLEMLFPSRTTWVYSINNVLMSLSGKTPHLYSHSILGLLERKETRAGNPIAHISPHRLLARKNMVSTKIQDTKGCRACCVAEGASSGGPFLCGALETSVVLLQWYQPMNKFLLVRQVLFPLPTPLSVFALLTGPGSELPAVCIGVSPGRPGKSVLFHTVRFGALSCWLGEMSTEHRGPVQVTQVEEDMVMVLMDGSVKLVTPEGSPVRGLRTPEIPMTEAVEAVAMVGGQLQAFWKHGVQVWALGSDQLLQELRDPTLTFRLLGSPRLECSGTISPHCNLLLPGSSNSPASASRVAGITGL

Take `Cc1ccc2[nH]ncc2c1-c1ccc2nc(NC(=O)C3CC3)sc2c1` [Example 1, N-(6-(5-methyl-1H-indazol-4-yl)benzo[d]thiazol-2-yl)cyclopropanecarboxamide]: the negative logarithm of the IC50 (pIC50) is 6.30 to 7.00.
Take `Cc1ccc2[nH]ncc2c1-c1ccc2nc(NC(=O)[C@@H]3C[C@@H]3F)sc2c1` [Example 2, (1S,2S)-2-fluoro-N-(6-(5-methyl-1H-indazol-4-yl)benzo[d]thiazol-2-yl)cyclopropane-1-carboxamide]: the pIC50 was 6.30 to 7.00.
The figure for `Cc1ccc2[nH]ncc2c1-c1ccc2nc(NC(=O)OC(C)(C)C)sc2c1` [Example 3, tert-butyl (6-(5-methyl-1H-indazol-4-yl)benzo[d]thiazol-2-yl)carbamate] is less than 6.00.
The value for `Cc1ccc2[nH]ncc2c1-c1ccc2nc(NC(=O)C3CCC3)sc2c1` [Example 4, N-(6-(5-methyl-1H-indazol-4-yl)benzo[d]thiazol-2-yl)cyclobutanecarboxamide] was 6.00 to 6.30; that for `Cc1ccc2[nH]ncc2c1-c1ccc2nc(NC(=O)C3CC3(F)F)sc2c1` (stereo not drawn) [Example 5, 2,2-difluoro-N-(6-(5-methyl-1H-indazol-4-yl)benzo[d]thiazol-2-yl)cyclopropane-1-carboxamide] was 6.30 to 7.00; that for `Cc1ccc2[nH]ncc2c1-c1ccc2nc(NC(=O)C3CC(F)C3)sc2c1` [Example 6, (1S,3S)-3-fluoro-N-(6-(5-methyl-1H-indazol-4-yl)benzo[d]thiazol-2-yl)cyclobutane-1-carboxamide] was 6.30 to 7.00.
For the compound `Cc1ccc2[nH]ncc2c1-c1ccc2nc(NC(=O)C3CC(F)C3)sc2c1` [Example 7, (1R,3R)-3-fluoro-N-(6-(5-methyl-1H-indazol-4-yl)benzo[d]thiazol-2-yl)cyclobutane-1-carboxamide], the pIC50 was 6.30 to 7.00.
The value for `Cc1ccc2[nH]ncc2c1-c1ccc2nc(NC(=O)c3ccccc3)sc2c1` [Example 8, N-(6-(5-methyl-1H-indazol-4-yl)benzo[d]thiazol-2-yl)benzamide] was less than 6.00; that for `CCCCC(=O)Nc1nc2ccc(-c3c(C)ccc4[nH]ncc34)cc2s1` [Example 9, N-(6-(5-methyl-1H-indazol-4-yl)benzo[d]thiazol-2-yl)pentanamide] was less than 6.00; that for `Cc1ccc2[nH]ncc2c1-c1ccc2nc(NC(=O)C3CCCC3)sc2c1` [Example 10, N-(6-(5-methyl-1H-indazol-4-yl)benzo[d]thiazol-2-yl)cyclopentanecarboxamide] was less than 6.00.
The value for `Cc1ccc2[nH]ncc2c1-c1ccc2nc(NC(=O)C3CC(F)(F)C3)sc2c1` [Example 11, 3,3-difluoro-N-(6-(5-methyl-1H-indazol-4-yl)benzo[d]thiazol-2-yl)cyclobutane-1-carboxamide] was 6.00 to 6.30.
Consider `Cc1ccc2[nH]ncc2c1-c1ccc2nc(NC(=O)c3ccccn3)sc2c1` [Example 12, N-(6-(5-methyl-1H-indazol-4-yl)benzo[d]thiazol-2-yl)picolinamide], for which the pIC50 was less than 6.00.
The value for `O=C(Nc1nc2ccc(-c3c(-c4cccs4)ccc4[nH]ncc34)cc2s1)C1CC1` [Example 13, N-(6-(5-(thiophen-2-yl)-1H-indazol-4-yl)benzo[d]thiazol-2-yl)cyclopropanecarboxamide] was less than 6.00; that for `O=C(Nc1nc2ccc(-c3cccc4[nH]ncc34)cc2s1)C1CC1` [Example 14, N-(6-(1H-indazol-4-yl)benzo[d]thiazol-2-yl)cyclopropanecarboxamide] was less than 6.00.
Take `O=C(Nc1nc2ccc(-c3c(F)ccc4[nH]ncc34)cc2s1)C1CC1` [Example 15, N-(6-(5-fluoro-1H-indazol-4-yl)benzo[d]thiazol-2-yl)cyclopropanecarboxamide]: the negative logarithm of the IC50 (pIC50) was 6.30 to 7.00.
Turning to `O=C(Nc1nc2ccc(-c3c(Cl)ccc4[nH]ncc34)cc2s1)C1CC1` [Example 16, N-(6-(5-chloro-1H-indazol-4-yl)benzo[d]thiazol-2-yl)cyclopropanecarboxamide], the pIC50 is 6.30 to 7.00.
The figure for `O=C(Nc1nc2ccc(-c3c(C(F)(F)F)ccc4[nH]ncc34)cc2s1)C1CC1` [Example 17, N-(6-(5-(trifluoromethyl)-1H-indazol-4-yl)benzo[d]thiazol-2-yl)cyclopropanecarboxamide] is 6.30 to 7.00; for `O=C(Nc1nc2ccc(-c3c(-c4ccsc4)ccc4[nH]ncc34)cc2s1)C1CC1` [Example 18, N-(6-(5-(thiophen-3-yl)-1H-indazol-4-yl)benzo[d]thiazol-2-yl)cyclopropanecarboxamide] it is less than 6.00; for `O=C(Nc1nc2ccc(-c3ccc(Cl)c4[nH]ncc34)cc2s1)C1CC1` [Example 19, N-(6-(7-chloro-1H-indazol-4-yl)benzo[d]thiazol-2-yl)cyclopropanecarboxamide] it is less than 6.00.
The figure for `O=C(Nc1nc2ccc(-c3cc(Cl)cc4[nH]ncc34)cc2s1)C1CC1` [Example 20, N-(6-(6-chloro-1H-indazol-4-yl)benzo[d]thiazol-2-yl)cyclopropanecarboxamide] is less than 6.00; for `CC(C)(C)OC(=O)c1ccc2[nH]ncc2c1-c1ccc2nc(NC(=O)C3CC3)sc2c1` [Example 21, tert-butyl 4-(2-(cyclopropanecarboxamido)benzo[d]thiazol-6-yl)-1H-indazole-5-carboxylate] it is less than 6.00; for `O=C(Nc1nc2ccc(-c3cc(-c4cccs4)cc4[nH]ncc34)cc2s1)C1CC1` [Example 22, N-(6-(6-(thiophen-2-yl)-1H-indazol-4-yl)benzo[d]thiazol-2-yl)cyclopropanecarboxamide] it is less than 6.00.
The value for `O=C(NCc1ccsc1)c1ccc2[nH]ncc2c1-c1ccc2nc(NC(=O)C3CC3)sc2c1` [Example 23, 4-(2-(cyclopropanecarboxamido)benzo[d]thiazol-6-yl)-N-(thiophen-3-ylmethyl)-1H-indazole-5-carboxamide] was less than 6.00; that for `COc1ccc2[nH]ncc2c1-c1ccc2nc(NC(=O)C3CC3)sc2c1` [Example 24, N-(6-(5-methoxy-1H-indazol-4-yl)benzo[d]thiazol-2-yl)cyclopropanecarboxamide] was 6.30 to 7.00; that for `O=C(Nc1nc2ccc(-c3c(CO)ccc4[nH]ncc34)cc2s1)C1CC1` [Example 25, N-(6-(5-(hydroxymethyl)-1H-indazol-4-yl)benzo[d]thiazol-2-yl)cyclopropanecarboxamide] was 6.00 to 6.30.
Regarding `Cc1ccc2[nH]nc(N)c2c1-c1ccc2nc(NC(=O)C3CC3)sc2c1` [Example 26, N-(6-(3-amino-5-methyl-1H-indazol-4-yl)benzo[d]thiazol-2-yl)cyclopropanecarboxamide], the pIC50 was less than 6.00.
Consider `O=C(Nc1nc2ccc(-c3c(O)ccc4[nH]ncc34)cc2s1)C1CC1` [Example 27, N-(6-(5-hydroxy-1H-indazol-4-yl)benzo[d]thiazol-2-yl)cyclopropanecarboxamide], for which the pIC50 is less than 6.00.
The figure for `CCc1ccc2[nH]ncc2c1-c1ccc2nc(NC(=O)C3CC3)sc2c1` [Example 28, N-(6-(5-ethyl-1H-indazol-4-yl)benzo[d]thiazol-2-yl)cyclopropanecarboxamide] is 6.30 to 7.00.
With `N#Cc1ccc2[nH]ncc2c1-c1ccc2nc(NC(=O)C3CC3)sc2c1` [Example 29, N-(6-(5-cyano-1H-indazol-4-yl)benzo[d]thiazol-2-yl)cyclopropanecarboxamide], the pIC50 was 6.30 to 7.00.
The value for `O=C(Nc1nc2ccc(-c3c(Cl)ccc4[nH]ncc34)cc2s1)[C@@H]1C[C@@H]1F` [Example 30, (1S,2S)-N-(6-(5-chloro-1H-indazol-4-yl)benzo[d]thiazol-2-yl)-2-fluorocyclopropane-1-carboxamide] was 6.30 to 7.00; that for `CN(C)CCOc1ccc2[nH]ncc2c1-c1ccc2nc(NC(=O)[C@@H]3C[C@@H]3F)sc2c1` [Example 31, (1S,2S)-N-(6-(5-(2-(dimethylamino)ethoxy)-1H-indazol-4-yl)benzo[d]thiazol-2-yl)-2-fluorocyclopropane-1-carboxamide] was less than 6.00; that for `Cc1ccc2[nH]ncc2c1-c1ccc2nc(NC(=S)C3CC3)sc2c1` [Example 32, N-(6-(5-methyl-1H-indazol-4-yl)benzo[d]thiazol-2-yl)cyclopropanecarbothioamide] was 6.30 to 7.00.
The value for `O=C(Nc1nc2ccc(-c3c(C(F)F)ccc4[nH]ncc34)cc2s1)[C@@H]1C[C@@H]1F` [Example 33, (1S,2S)-N-(6-(5-(difluoromethyl)-1H-indazol-4-yl)benzo[d]thiazol-2-yl)-2-fluorocyclopropane-1-carboxamide] was 6.30 to 7.00; that for `COCCOc1ccc2[nH]ncc2c1-c1ccc2nc(NC(=O)[C@@H]3C[C@@H]3F)sc2c1` [Example 34, (1S,2S)-2-fluoro-N-(6-(5-(2-methoxyethoxy)-1H-indazol-4-yl)benzo[d]thiazol-2-yl)cyclopropane-1-carboxamide] was less than 6.00.
Turning to `C=Cc1ccc2[nH]ncc2c1-c1ccc2nc(NC(=O)[C@@H]3C[C@@H]3F)sc2c1` [Example 35, (1S,2S)-2-fluoro-N-(6-(5-vinyl-1H-indazol-4-yl)benzo[d]thiazol-2-yl)cyclopropane-1-carboxamide], the pIC50 is 6.30 to 7.00.
Regarding `O=C(Nc1nc2ccc(-c3c(CF)ccc4[nH]ncc34)cc2s1)[C@@H]1C[C@@H]1F` [Example 36, (1S,2S)-2-fluoro-N-(6-(5-(fluoromethyl)-1H-indazol-4-yl)benzo[d]thiazol-2-yl)cyclopropane-1-carboxamide], the pIC50 was 6.30 to 7.00.
